According to PubChem BioAssay (NCI):
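Interpolation was linear, between the two tested concentrations surrounding the appropriate level; five concentrations were tested over 48 hours in 96-well plates. GI50: concentration for 50% inhibition of growth. TGI denotes the concentration required for complete inhibition of growth.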

Assays:
Experiment in all cases: NCI-60 cell line screen, 48 h; in the data active means GI50 below about 0.43 µM; inactive means the rest
NCI-H522 lung = test system: NCI-H522 lung
HS 578T breast = test system: HS 578T breast
KM12 colon = test system: KM12 colon
M14 melanoma = test system: M14 melanoma
NCI-H226 lung = test system: NCI-H226 lung
PC-3 prostate = test system: PC-3 prostate
OVCAR-5 ovarian = test system: OVCAR-5 ovarian
T-47D breast = test system: T-47D breast
U251 CNS = test system: U251 CNS
SR leukemia = test system: SR leukemia
UACC-257 melanoma = test system: UACC-257 melanoma
TK-10 renal = test system: TK-10 renal
HCT-116 colon = test system: HCT-116 colon
NCI-H23 lung = test system: NCI-H23 lung
HOP-62 NSCLC = test system: HOP-62 NSCLC
UO-31 renal = test system: UO-31 renal
ACHN renal = test system: ACHN renal
SF-295 CNS = test system: SF-295 CNS
OVCAR-4 ovarian = test system: OVCAR-4 ovarian
MDA-MB-435 = test system: MDA-MB-435
A549 NSCLC = test system: A549 NSCLC
HCT-15 colon = test system: HCT-15 colon
LOX IMVI melanoma = test system: LOX IMVI melanoma
SW-620 colon = test system: SW-620 colon
786-0 renal = test system: 786-0 renal
COLO 205 colon = test system: COLO 205 colon
MOLT-4 leukemia = test system: MOLT-4 leukemia
HL-60(TB) leukemia = test system: HL-60(TB) leukemia
UACC-62 melanoma = test system: UACC-62 melanoma
SF-268 CNS = test system: SF-268 CNS
HT29 colon = test system: HT29 colon
RXF 393 renal = test system: RXF 393 renal
NCI/ADR-RES ovarian = test system: NCI/ADR-RES ovarian
SK-MEL-2 melanoma = test system: SK-MEL-2 melanoma
MDA-MB-231 breast = test system: MDA-MB-231 breast
MALME-3M melanoma = test system: MALME-3M melanoma
RPMI-8226 leukemia = test system: RPMI-8226 leukemia
CAKI-1 renal = test system: CAKI-1 renal
CCRF-CEM leukemia = test system: CCRF-CEM leukemia
OVCAR-8 ovarian = test system: OVCAR-8 ovarian
A498 renal = test system: A498 renal
K-562 leukemia = test system: K-562 leukemia
EKVX NSCLC = test system: EKVX NSCLC
SK-MEL-28 melanoma = test system: SK-MEL-28 melanoma
SNB-19 CNS = test system: SNB-19 CNS
SF-539 CNS = test system: SF-539 CNS
MCF7 breast = test system: MCF7 breast
OVCAR-3 ovarian = test system: OVCAR-3 ovarian
HOP-92 NSCLC = test system: HOP-92 NSCLC
HCC-2998 colon = test system: HCC-2998 colon
SK-MEL-5 melanoma = test system: SK-MEL-5 melanoma
BT-549 breast = test system: BT-549 breast
NCI-H460 lung = test system: NCI-H460 lung
IGROV1 ovarian = test system: IGROV1 ovarian
DU-145 prostate = test system: DU-145 prostate
SN12C renal = test system: SN12C renal
SNB-75 CNS = test system: SNB-75 CNS

COc1ccc2c(c1)C(=O)c1c-2c(Nc2ccc(Cl)cc2)nc2ccccc12
16 µM: TGI (786-0 renal)
52.1 µM: TGI (IGROV1 ovarian)
26 µM: TGI (UACC-62 melanoma)
39.7 µM: TGI (A549 NSCLC)
46.6 µM: TGI (SF-295 CNS)
45.5 µM: TGI (NCI-H522 lung)
> 100 µM: TGI (KM12 colon) | TGI (M14 melanoma) | TGI (T-47D breast) | TGI (UACC-257 melanoma) | TGI (UO-31 renal) | TGI (MDA-MB-435) | TGI (HCT-15 colon) | TGI (SW-620 colon) | TGI (COLO 205 colon) | TGI (MOLT-4 leukemia) | TGI (HL-60(TB) leukemia) | TGI (SF-268 CNS) | TGI (HT29 colon) | TGI (NCI/ADR-RES ovarian) | TGI (RPMI-8226 leukemia) | TGI (CAKI-1 renal) | TGI (CCRF-CEM leukemia) | TGI (K-562 leukemia) | TGI (SK-MEL-28 melanoma) | TGI (MCF7 breast) | TGI (OVCAR-3 ovarian) | TGI (HCC-2998 colon) | TGI (NCI-H460 lung)
18.9 µM: TGI (MDA-MB-231 breast) | TGI (A498 renal)
56.1 µM: TGI (SK-MEL-2 melanoma)
63.3 µM: TGI (PC-3 prostate)
84.1 µM: TGI (OVCAR-5 ovarian)
22.8 µM: TGI (SNB-75 CNS)
50.3 µM: TGI (NCI-H23 lung)
44 µM: TGI (SNB-19 CNS)
13.2 µM: TGI (SK-MEL-5 melanoma)
16.3 µM: TGI (ACHN renal)
57.1 µM: TGI (SN12C renal)
98.5 µM: TGI (DU-145 prostate)
42.9 µM: TGI (OVCAR-4 ovarian)
11.3 µM: TGI (HOP-62 NSCLC)
inactive: GI50 (NCI-H522 lung) 10.1 µM | GI50 (HS 578T breast) 2.58 µM | GI50 (KM12 colon) 50 µM | GI50 (M14 melanoma) 31 µM | GI50 (NCI-H226 lung) 10.3 µM | GI50 (PC-3 prostate) 15.5 µM | GI50 (OVCAR-5 ovarian) 22.3 µM | GI50 (T-47D breast) 17.8 µM | GI50 (U251 CNS) 5.51 µM | GI50 (SR leukemia) 14 µM | GI50 (UACC-257 melanoma) 27.8 µM | GI50 (TK-10 renal) 14.3 µM | GI50 (HCT-116 colon) 5.03 µM | GI50 (NCI-H23 lung) 13.6 µM | GI50 (HOP-62 NSCLC) 2.86 µM | GI50 (UO-31 renal) 25.8 µM | GI50 (ACHN renal) 4.23 µM | GI50 (SF-295 CNS) 16.7 µM | GI50 (OVCAR-4 ovarian) 10.1 µM | GI50 (MDA-MB-435) 38.6 µM | GI50 (A549 NSCLC) 13.3 µM | GI50 (HCT-15 colon) 42.3 µM | GI50 (LOX IMVI melanoma) 14.2 µM | GI50 (SW-620 colon) 23.8 µM | GI50 (786-0 renal) 4.15 µM | GI50 (COLO 205 colon) 34.8 µM | GI50 (MOLT-4 leukemia) 27.5 µM | GI50 (HL-60(TB) leukemia) > 100 µM | GI50 (UACC-62 melanoma) 11.3 µM | GI50 (SF-268 CNS) > 100 µM | GI50 (HT29 colon) 27.5 µM | GI50 (RXF 393 renal) 2.06 µM | GI50 (NCI/ADR-RES ovarian) 16.6 µM | GI50 (SK-MEL-2 melanoma) 17 µM | GI50 (MDA-MB-231 breast) 4.46 µM | GI50 (MALME-3M melanoma) 11 µM | GI50 (RPMI-8226 leukemia) 24.5 µM | GI50 (CAKI-1 renal) 20.4 µM | GI50 (CCRF-CEM leukemia) 32 µM | GI50 (OVCAR-8 ovarian) 11.4 µM | GI50 (A498 renal) 5.01 µM | GI50 (K-562 leukemia) 71.6 µM | GI50 (EKVX NSCLC) 10.1 µM | GI50 (SK-MEL-28 melanoma) 19.7 µM | GI50 (SNB-19 CNS) 14.4 µM | GI50 (SF-539 CNS) 8.76 µM | GI50 (MCF7 breast) > 100 µM | GI50 (OVCAR-3 ovarian) 33.6 µM | GI50 (HOP-92 NSCLC) 11.5 µM | GI50 (HCC-2998 colon) 22.1 µM | GI50 (SK-MEL-5 melanoma) 2.84 µM | GI50 (BT-549 breast) 8.46 µM | GI50 (NCI-H460 lung) > 100 µM | GI50 (IGROV1 ovarian) 10.7 µM | GI50 (DU-145 prostate) 8.49 µM | GI50 (SN12C renal) 17.7 µM | GI50 (SNB-75 CNS) 4.27 µM
54.9 µM: TGI (LOX IMVI melanoma)
34.3 µM: TGI (TK-10 renal)
18.4 µM: TGI (U251 CNS)
58.2 µM: TGI (SR leukemia)
39.2 µM: TGI (HOP-92 NSCLC)
6.35 µM: TGI (RXF 393 renal)
24 µM: TGI (HCT-116 colon)
95.3 µM: TGI (EKVX NSCLC)
29.6 µM: TGI (OVCAR-8 ovarian)
50 µM: TGI (NCI-H226 lung)
27.7 µM: TGI (BT-549 breast)
8.82 µM: TGI (HS 578T breast)
42.4 µM: TGI (MALME-3M melanoma)
26.2 µM: TGI (SF-539 CNS)
